# “And” between values parts separate entries of the source, which are not always exact repeats. Equal entries are not always repeated. “Also recorded” adds a separate entry of the source.
# What was measured:
# CaR2 = molecular target: T1, CaR2 (Homo sapiens, UniProt Q5T6X5, P91S); experiment: FLIPR intracellular Ca^++ assay in HEK293 clone expressing CaR2 (HEK-167B12-2.1); assay type: cell-based; settings: for FLIPR response / activation of CaR2 by ligand: initial ligand testing, ligand alone; for effect of Pb on activation of CaR2 by combined OC and Ca^++: OC and Ca^++ pre-incubated with / in the presence of Pb
# T1 construct: molecular acquisition of the full-length cDNA led to the identification of the six coding exons; expressed in transfected cells
# T1 sequence (Q5T6X5 19-926 P91S): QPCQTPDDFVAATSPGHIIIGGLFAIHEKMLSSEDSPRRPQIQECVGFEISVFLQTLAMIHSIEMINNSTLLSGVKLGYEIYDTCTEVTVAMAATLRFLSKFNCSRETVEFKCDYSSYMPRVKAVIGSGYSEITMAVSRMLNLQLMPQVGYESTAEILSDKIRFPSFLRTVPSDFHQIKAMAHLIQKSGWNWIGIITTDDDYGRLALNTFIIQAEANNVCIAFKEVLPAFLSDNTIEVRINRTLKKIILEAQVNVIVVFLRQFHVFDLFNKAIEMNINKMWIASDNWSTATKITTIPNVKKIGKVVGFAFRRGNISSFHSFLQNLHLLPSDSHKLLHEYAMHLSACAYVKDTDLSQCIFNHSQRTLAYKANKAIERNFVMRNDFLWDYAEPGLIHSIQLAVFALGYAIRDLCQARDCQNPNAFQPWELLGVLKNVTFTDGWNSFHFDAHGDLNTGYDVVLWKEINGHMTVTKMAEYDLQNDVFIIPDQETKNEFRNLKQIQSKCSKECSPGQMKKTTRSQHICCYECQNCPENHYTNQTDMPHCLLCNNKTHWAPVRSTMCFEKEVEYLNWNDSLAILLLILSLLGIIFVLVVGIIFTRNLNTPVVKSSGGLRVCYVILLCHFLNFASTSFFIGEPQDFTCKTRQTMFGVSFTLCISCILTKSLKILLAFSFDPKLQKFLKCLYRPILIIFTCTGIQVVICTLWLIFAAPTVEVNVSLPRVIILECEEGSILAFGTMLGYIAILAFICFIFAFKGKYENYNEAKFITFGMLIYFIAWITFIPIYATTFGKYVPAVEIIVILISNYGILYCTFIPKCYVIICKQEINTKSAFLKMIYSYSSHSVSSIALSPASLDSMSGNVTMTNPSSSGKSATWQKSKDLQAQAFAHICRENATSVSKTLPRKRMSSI
# Description: To facilitate pharmacological experimentation, CaR2 cDNA was cloned into the mammalian expression vector pcDNA 3.1 (+) Neo with or without a COOH-terminal FLAG epitope. The transgene was introduced into the HEK293 cell line and stable transfectants were identified. These clones were analyzed for CaR2 expression by qPCR and Western blotting to identify those clones that were suitable for ligand identification.
# Based on the homology to the characterized goldfish odorant receptor 5.24, initial studies investigated the ability of 18 naturally occurring amino acids to trigger changes of intracellular Ca^++ levels in the transfected cells, as measured with a fluorescent imaging plate reader (FLIPR).
# (§1) Intracellular Ca^++ was measured using a fluorometric imaging plate reader (FLIPR) [Molecular Devices]. Cells were seeded at a density of 1×10^5/well (96-well plate) or 1×10^4/well (384-well plate) in collagen coated plates and incubated overnight at 36.9° C. with 5% CO2. Medium was aspirated from the plates and replaced with equal volumes of a no wash calcium dye (Molecular Devices) and modified Hank's buffered saline solution [Ca^2+-free, Mg^2+-free] (140 mM NaCl, 5.4 mM KCl, 0.64 mM KH2PO4, 3 mM NaHCO3, 5.5 mM C6H12O6, 20 mM HEPES, 2.5 mM Caprylic acid (or 2.5 mM probenecid)). The plates were incubated for 1 hour at 36.9° C. with 5% CO2. FLIPR was used to measure changes in intracellular calcium as relative fluorescence upon activation by ligand.
# parental HEK293 cells = experiment: FLIPR intracellular Ca^++ assay in parental HEK293 cells (no CaR2); assay type: cell-based
# Description: as §1
# (§2) Also, the apical side of cells lining tubules in Henle's loop in kidney and in epithelial cells lining prostate ducts are microenvironments where a higher than standard extracellular Ca^++ can be expected.
# (§3) Having shown that high calcium levels activate CaR2, the effects of several agents known to modulate bone metabolism were determined.
# CaR [1] = settings: CaR in transfected HEK 293 cells; read-out: EC50 for Ca^++ at CaR; cited from earlier work
# Saos-2 osteoblasts = experiment: Osteoblast survival and proliferation in high mM Ca^++; assay type: cell-based
# Source text: Saos-2 osteoblasts (ATCC-HTB-85) express CaR2 as determined by Western Blotting.
# CaR [2] = experiment: Activation of CaR in transfected HEK 293 cells; assay type: cell-based; settings: HEK293 cells that express the previously characterized CaR
# Description: as §1, §2, §3
molecule,measurement,setting,value
"[Ca+2] [Ca^++, calcium]",CaR2 activation by Ca^++,CaR2; 10 mM Ca^++ (FIG. 4),modest activation
same,CaR2 activation by Ca^++,CaR2; 40 mM Ca^++ (FIG. 4),robustly activated
same,EC50,"CaR2; HEK293 clone expressing CaR2, FLIPR",85 mM
same,calcium level causing marked increase in fluorescence signal (intracellular Ca^++),CaR2; clone expressing CaR2 (FIG. 2),> 20 mM
same,FLIPR response / activation of CaR2 by ligand,CaR2,failed to elicit a positive FLIPR response
same,increase in fluorescence signal by high calcium levels,"parental HEK293 cells; parental cell line, >20 mM calcium",not observed
same,EC50,CaR [1],4.1 mM and 4 mM
same,growth of Saos-2 cells,Saos-2 osteoblasts; buffer containing 2 mM Ca^++,grew
same,proliferation and survival of Saos-2 cells,Saos-2 osteoblasts; medium containing 10 mM Ca^++,did not proliferate
same,proliferation and survival of Saos-2 cells,Saos-2 osteoblasts; medium containing 40 mM Ca^2+,survived and proliferated normally
"NCCCC(=O)O [GABA, reference compound]",FLIPR response / activation of CaR2 by ligand,CaR2,failed to elicit a positive FLIPR response
"CN[C@H](CC(=O)O)C(=O)O [NMDA, reference compound]",FLIPR response / activation of CaR2 by ligand,CaR2,failed to elicit a positive FLIPR response
"[Pb+2] [Pb^++, reference compound]",effect of Pb on activation of CaR2 by combined OC and Ca^++,CaR2,blocked
same,effect of Pb on activation of CaR2 by combined OC and Ca^++,CaR2; listed as Pb^2+,reversed
"OC: vitamin K-dependent bone calcium binding protein, 49 amino acids, synthesized by osteoblasts (YLYQWLGAPVPYPDPLEPRREVCELNPDCDELADHIGFQEAYRRFYGPV; UniProt P02818 52-100, looked up)",synergistic effect of OC and calcium on CaR2,"CaR2; OC and calcium added separately, not pre-incubated",not when both ligands are added separately
same,effect of OC on activation of CaR2 by Ca^++,CaR2; OC pre-incubated with calcium,CaR2 was activated at lower calcium levels and the activation by high mM calcium was potentiated; also recorded: dose-dependent effect; also recorded: activates CaR2 when pre-incubated with 10 mM Ca^++ in a dose-dependent manner; also recorded: increases the sensitivity of CaR2 to Ca^++
same,activation of CaR2 by OC,CaR2; in the absence of calcium,does not activate CaR2
same,effect of OC and Ca^++,parental HEK293 cells; parental HEK293 cells that do not express CaR2,not observed
same,effect of OC and Ca^++,CaR [2],not observed
calcitonin [CT],intracellular Ca^++ in the CaR2 clone,"CaR2; either ligand (BMP-2 or CT) added alone, absence of calcium",not seen

# — patent US8460894B2, “Calcium-sensing receptor 2 (CaR2) and methods for using” (ABT Holding Company, priority 2002, dated 2013)
